Test results as given in ChEMBL document CHEMBL5518204, “Discovery and Proof of Concept of Potent Dual Polθ/PARP Inhibitors for Efficient Treatment of Homologous Recombination-Deficient Tumors” (J Med Chem, 2024).
pIC50: −log10 of the molar value. Calls of active or inactive are those of the source. The rule behind the calls is not given here.

Experiments:
[1] = Metabolic stability in rat liver microsome assessed as intrinsic clearance; assay type: ADME; details: liver microsomes, read-out: CLH
HCT-116 = assay: Antiproliferative activity against BRCA2-deficient human HCT-116 cells assessed as inhibition of cell proliferation incubated for 5 days by MTT assay; assay type: functional, cell-based; details: HCT-116, 120 h
[2] = Toxicity in BALB/c mouse xenografted with human MDA-MB-231 cells assessed as increase in body weight at 20 to 40 mg/kg, ip administered for 21 days; assay type: organism-based; details: in vivo, 504 h, dose 20-40 mg/kg, time 21 day
[3] = Half life in Sprague-Dawley rat at 1 mg/kg, iv by LC-MS/MS analysis; assay type: ADME, organism-based; details: in vivo
MDA-MB-231 = assay: Induction of DNA damage in human MDA-MB-231 cells assessed as increase in tail intensity at 2 uM incubated for 3 days by florescence microscopic analysis; assay type: functional, cell-based; details: time 3.0 day

CLint scaled [1]: 802 mL/min/kg
pIC50 (HCT-116): 5.05
half-life [3]: 2 h
Structure (SMILES): COc1ccc(Cl)cc1-c1cc(C)ncc1C(=O)Nc1nnc(OCC2CCN(C(=O)c3cc(Cc4n[nH]c(=O)c5ccccc45)ccc3F)CC2)s1
Activity [2]: Non-Toxic
Activity (MDA-MB-231): Active
